We go through four molecules from US10968184B2, “Pyrimidine prodrugs for the treatment of viral infections and further diseases” (Janssen Sciences Ireland Unlimited Company, priority 2016, dated 2021).

Usually half-life stands for the time in which the quantity being followed falls by half. Read a high half-life as slow decline. One may read the microsomal CLint as the capacity of the preparation to metabolise the compound, expressed as a volume cleared per time. Usually hepatocyte CLint stands for the capacity of the preparation to metabolise the compound, expressed as a volume cleared per time. As usually defined, the Papp A→B is the apparent permeability from the apical to the basolateral side of a cell layer. The low end stands for slow passage, the high end for fast passage. The efflux ratio is the permeability from basolateral to apical divided by that in the opposite direction, in the common usage. One may read the Cmax as the peak of the concentration-time curve. In general, melting point refers to the temperature, or range, at which the solid turns liquid.

A short description of data set [1]: in vitro. Conditions: rat, plasma.
Data set [2] in a line: in vitro. Conditions: simulated gi fluid.
The nature of data set [3]: in vitro. The settings on record: human, liver microsomes. (In general: Liver microsomes are vesicles of endoplasmic reticulum, rich in cytochrome P450 enzymes.)
Data set [4] can be described thus: in vitro. Conditions: human, hepatocytes.
Data set [5] relates to P-glycoprotein (human MDR1). Kind of data set: in vitro. The settings on record: dog, MDCK-MDR1.
Data set [6] in a line: Pharmacokinetics in rat after oral administration. The class given is in vivo. The settings on record: SD rats, aqueous solution, 5 mg/kg eq dose, prodrug in plasma; for AUC(0-t): read-out: AUC(0-last) prodrug. As for the experimental part: Pharmacokinetics in rat. Prodrugs were administered orally to SD rats using aqueous solution at 5 mg/kg eq dose. Plasma samples were collected at different time points and the concentration of parent and prodrug was analyzed using LC-MS/MS. PK parameters were calculated using Phoenix WinNonlin 6.3. Cmax (ng/mL) and AUC(0-last) (ng·h/mL) were determined for both prodrug and parent.

Data set [7] can be described thus: in vitro. The settings on record: human, plasma.
Data set [8] is described as follows: in vitro. The settings on record: simulated gi fluid. The source holds these as a separate data set.
A short description of data set [9]: in vitro. Conditions: rat, liver microsomes.
Data set [10] can be described thus: in vitro. Conditions: rat, hepatocytes.

In turn, `CCCC[C@H](CO)Nc1nc(N(C)C)ncc1OC` [Compound 5, (R)-2-((2-(dimethylamino)-5-methoxypyrimidin-4-yl)amino)hexan-1-ol] returned a melting point of 86.1 °C. In the data set “in vitro [1]”, the half-life at 1 μM was > 30 h. Also, the half-life in “in vitro [2]” is > 6 h. This molecule also gave a microsomal CLint at 1 μM in “in vitro [3]” of 14 µL/min/mg. The hepatocyte CLint at 1 μM in “in vitro [4]” was found to be 80 µL/min/1e6 cells. In addition, in [5], the Papp A→B came out at 20 ×10⁻⁶ cm/s and the efflux ratio was 3.2. In addition, in data set [6], the Cmax amounted to 88 ng/mL and the AUC(0-t) was found to be 144 ng·h/mL. For the same molecule, the half-life at 1 μM in “in vitro [7]” was > 30 h. The half-life in the data set “in vitro [8]” is > 6 h. Besides, the microsomal CLint at 1 μM in the data set “in vitro [9]” stood at 141 µL/min/mg. Moreover, the hepatocyte CLint at 1 μM in “in vitro [10]” was determined as 280 µL/min/1e6 cells.
Take `CCCC[C@H](CO)Nc1nc(NC)ncc1OC` [Compound 6]: the half-life at 1 μM in “in vitro [1]” and in “in vitro [7]” was > 30 h throughout. Further, the half-life in the data set “in vitro [2]” and in the data set “in vitro [8]” was > 6 h in each case. For the same molecule, the microsomal CLint at 1 μM came to 18 µL/min/mg in the data set “in vitro [3]” and 25 µL/min/mg in the data set “in vitro [9]”. In addition, the values for the intrinsic clearance (hepatocyte CLint) at 1 μM in the data set “in vitro [4]” and in “in vitro [10]” were 33 µL/min/1e6 cells and 120 µL/min/1e6 cells, respectively. Besides, the Papp A→B in [5] turned out to be 6.8 ×10⁻⁶ cm/s. Besides, in data set [5], the efflux ratio amounted to 10. Moreover, in data set [6], the highest concentration (Cmax) was determined as 129 ng/mL. The AUC(0-t) in data set [6] is 206 ng·h/mL.
For the molecule `CCCC[C@H](CO)Nc1nc(NC2CCCO2)ncc1OC` (stereo partly drawn) [Compound 9, (2R)-2-((5-methoxy-2-((tetrahydrofuran-2-yl)amino)pyrimidin-4-yl)-amino)hexan-1-ol], the half-life at 1 μM in “in vitro [1]” and in “in vitro [7]” was < 0.4 h each time. Also, the microsomal CLint at 1 μM came out at 115 µL/min/mg in “in vitro [3]” and 27 µL/min/mg in “in vitro [9]”.
With `CCCC[C@H](CO)Nc1nc(NC2CCCCO2)ncc1OC` (stereo partly drawn) [Compound 10, (2R)-2-((5-methoxy-2-((tetrahydro-2H-pyran-2-yl)amino)pyrimidin-4-yl)-amino)hexan-1-ol], the half-life at 1 μM in the data set “in vitro [1]” and in “in vitro [7]” was 1.4 h in each case. Also, the microsomal CLint at 1 μM in the data set “in vitro [3]” was 88 to 90 µL/min/mg; in “in vitro [9]” it was > 347 µL/min/mg. In addition, in data set [5], the Papp A→B came out at 1.8 ×10⁻⁶ cm/s. Moreover, in data set [5], the efflux ratio came out at 33.
